Tests used:
42MGBA = experiment: cells; assay type: cell-based; settings: read-out: IC50 (in vitro toxicity)
HS27A = experiment: cells; assay type: cell-based; settings: HS-27A, read-out: IC50 (in vitro toxicity)
U251 = experiment: cells; assay type: cell-based; settings: Homo sapiens, U-251, read-out: IC50 (in vitro toxicity)
MDA-MB-231 [1] = experiment: Triple negative breast cancer study, IV dosing; assay type: in vivo, mouse; settings: IV once a week for 8 weeks
Method: The efficacy of compounds provided by the present disclosure was evaluated on a triple negative breast cancer xenograft model—MDA-MB-231. Human triple negative breast cancer cells were implanted into the flank of nude mice and the study was initiated after the volume of the tumors was 150 mm^3. The animals were IV dosed once a week for 8 weeks with either vehicle or 5 mg/kg of compound (5), or 20 mg/kg compound (7). The tumor volume, body weight, white blood cell count, and granulocyte count were determined during the study and 12 days after the final dose was administered.

[2] = system: LLCPK cells conditionally expressing hLAT1
Raji = experiment: cells; assay type: cell-based; settings: Homo sapiens, read-out: IC50 (in vitro toxicity)
KMS34 = experiment: cells; assay type: cell-based; settings: KMS-34, read-out: IC50 (in vitro toxicity)
KMS11 = experiment: cells; assay type: cell-based; settings: Homo sapiens, KMS-11, read-out: IC50 (in vitro toxicity)
Mia-PaCa2 = experiment: In vitro cytotoxicity, Mia-PaCa2; assay type: cell-based; settings: Homo sapiens, MIA PaCa-2, read-out: IC50 (in vitro toxicity)
[3] = system: human bone marrow cells (erythroid and myeloid progenitors); experiment: In vitro bone marrow toxicity, colony forming cell assays; settings: 14 days in culture, methylcellulose media
D283 = experiment: cells; assay type: cell-based; settings: D283, read-out: IC50 (in vitro toxicity)
AMO1 = experiment: cells; assay type: cell-based; settings: Homo sapiens, AMO1, read-out: IC50 (in vitro toxicity)
mouse melanoma cells = experiment: Mouse melanoma efficacy in syngeneic mice
HCT116 = experiment: In vitro cytotoxicity, HCT116; assay type: cell-based; settings: Homo sapiens, HCT-116, read-out: IC50 (in vitro toxicity)
[4] = system: Human prostate cancer PC3 cells; settings: mouse, in vivo
U251 MG = experiment: Orthotopic glioblastoma study (Example 83); assay type: in vivo, mouse; settings: athymic mice, 10 mg/kg IP once weekly for 4 weeks
Method: The efficacy of compounds provided by the present disclosure was evaluated using an orthotopic luciferase human glioblastoma model—U251 MG. Human glioblastoma cells were intracolonically injected (3×10^5 cells/3 μL) into athymic mice (female, 4-5 weeks-old, nu/un homozygous). Treatment began when the BLI reached a log-phase growth, at about 14 days after injection. Ten mice were assigned to each arm of the study. The mice were dosed with vehicle (IP, once weekly for 4 weeks), temozolomide (TMZ, 4 mg/kg, OG once daily for 5 days), or compound (5) (10 mg/kg, IP once weekly for 4 weeks). The tumor volume was measured using bioluminescence imaging.

L363 = experiment: cells; assay type: cell-based; settings: Homo sapiens, L-363, read-out: IC50 (in vitro toxicity)
794 = experiment: cells; assay type: cell-based; settings: read-out: IC50 (in vitro toxicity)
U266 = experiment: Orthotopic multiple myeloma study; settings: mouse, in vivo
Method: The efficacy of compounds provided by the present disclosure was evaluated using an orthotopic luciferase human multiple myeloma model—U266. Human multiple myeloma cells were IV injected (1×10^6 cells) into NSG mice (female, 5-6 weeks-old, Jackson Labs). Treatment began when the BLI reached a log-phase growth, at about 12 to 14 days after injection. Nine mice were assigned to each arm of the study. The mice were dosed with vehicle (IP, once weekly for 3 weeks), bortezomid (BTZ, 0.8 mg/kg, IP twice weekly for 3 weeks), compound (5) (5 mg/kg, IV once weekly for 3 weeks), or compound (5) (10 mg/kg, IV once weekly for 3 weeks). The tumor volume was measured using bioluminescence imaging.

HS5 = experiment: cells; assay type: cell-based; settings: HS5, read-out: IC50 (in vitro toxicity)
[5] = system: LLCPK cells conditionally expressing hLAT1; experiment: cells; settings: 0.5 h, read-out: LC50, concentration of test compound at which the percent surviving cells was 50%
MDA-MB-231 [6] = experiment: cells; assay type: cell-based; settings: Homo sapiens, MDA-MB-231, read-out: IC50 (in vitro toxicity)
MV411 = experiment: cells; assay type: cell-based; settings: Homo sapiens, MV4-11, read-out: IC50 (in vitro toxicity)
MDA-MB-231 [7] = experiment: Breast cancer xenograft study, IP dosing; assay type: in vivo, mouse
Method: The efficacy of compounds provided by the present disclosure was evaluated on a triple negative breast cancer xenograft model—MDA-MB-231. The tumors were implanted into mice and the study was initiated after the volume of the tumors was 140 mm^3. The animals were IP dosed once a week or 3 times per week for 3 weeks with either vehicle or 1.25 mg/kg, 2.5 mg/kg, or 5 mg/kg of compound (5). The tumor volume, body weight, white blood cell count, and granulocyte count were determined during the study and 20 days after the final dose was administered. […] Tumor growth remained about 90% suppressed 20 days post-dosing following the 5 mg/kg treatment regimens.

799E = experiment: In vitro cytotoxicity, 799E; assay type: cell-based; settings: read-out: IC50 (in vitro toxicity)

Cc1ccc(N(CCCl)CCCl)cc1C[C@H](N)CC(=O)O [Compound 5, (3S)-3-Amino-4-[5-[bis(2-chloroethyl)amino]-2-methyl-phenyl]butanoic Acid]
IC50 (42MGBA): < 100 µM
IC50 (HS27A): > 100 µM
IC50 (U251): < 100 µM
body weight (MDA-MB-231 [1]): maintained weight
myelosuppression (MDA-MB-231 [1]): not dectected
tumor growth suppression (MDA-MB-231 [1]; nude mice, 5 mg/kg compound (5), 20 mg/kg compound (7)): dose-dependent tumor growth suppression
IC50, S isomer compared with R isomer [2]: significantly less than the IC50 of the R isomer
IC50 (Raji): < 100 µM
IC50 (KMS34): > 100 µM
IC50 (KMS11): > 100 µM
IC50 (Mia-PaCa2): < 100 µM
toxicity to bone marrow progenitor cells (BFU-E, CFU-GM, Total CFC) [3]: melphalan is more toxic to bone marrow progenitor cells than compound (5)
IC50 (D283): < 100 µM
IC50 (AMO1): > 100 µM
tumor growth after end of dosing (mouse melanoma cells; after dosing ended at 12 days): Tumors began to grow
tumor growth (mouse melanoma cells; dosed daily for 12 days): suppressed tumor growth
white blood cell count (mouse melanoma cells; during treatment): remained within the normal range
IC50 (HCT116): < 100 µM
body weight [4]: maintained weight
myelosuppression [4]: not dectected
tumor growth suppression [4]: dose-dependent tumor growth suppression
crossing of the BBB (U251 MG): crossed the BBB
glioblastoma tumor growth (bioluminescence imaging) (U251 MG): suppressed glioblastoma tumor growth
IC50 (L363): > 100 µM
IC50 794: < 100 µM
multiple myeloma tumor growth (bioluminescence imaging) (U266): dose-dependent suppression of multiple myeloma tumor growth
IC50 (HS5): > 100 µM
CC50 [5]: < 1 µM
IC50 (MDA-MB-231 [6]): < 100 µM
IC50 (MV411): < 100 µM
tumor growth post-treatment (MDA-MB-231 [7]; 1.25 mg/kg and 2.5 mg/kg regimens, IP): demonstrated a dose response
growth of the tumors (MDA-MB-231 [7]; 2.5 mg/kg and 5 mg/kg dosing regimens, IP once a week or 3 times per week for 3 weeks): nearly completely suppressed
tumor growth suppression 20 days post-dosing (MDA-MB-231 [7]; 5 mg/kg treatment regimens, IP): about 90%
animal body weights (MDA-MB-231 [7]; all dosing regimens): increased
white blood cell count and granulocyte count (MDA-MB-231 [7]; during and following treatment, all dosing regimens): remained within normal range
IC50 (799E): < 100 µM

Reference: patent publication US10017459B2, “β-substituted β-amino acids and analogs as chemotherapeutic agents and uses thereof” (Quadriga Biosciences, Inc., priority 2015, dated 2018)
